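In this assay, cells in 96-well plates receive the compound at five concentrations for 48 hours. Endpoints are linearly interpolated between the surrounding concentrations. The concentration for full growth arrest is given as TGI.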 Where a SMILES comes first, the peptide text is derived from it. [ ]: non-standard residue; d: D form. The star is where a group is joined. Bn2Val = CC(C)[C@@H](C(=O)*)N(Cc1ccccc1)Cc1ccccc1; NMeV = CN[C@H](C(=O)O)C(C)C; X29 = COc1ccc(CN*)c(OC)c1; dNMeA = CN[C@H](C)C(=O)O
What was measured:
Experiment in all cases: growth of human tumour cells (NCI), 48 h
SK-MEL-28 melanoma = test system: SK-MEL-28 melanoma
U251 CNS = test system: U251 CNS
UACC-62 melanoma = test system: UACC-62 melanoma
MDA-MB-231 breast = test system: MDA-MB-231 breast
A549 NSCLC = test system: A549 NSCLC
MOLT-4 leukemia = test system: MOLT-4 leukemia
HCC-2998 colon = test system: HCC-2998 colon
786-0 renal = test system: 786-0 renal
SF-295 CNS = test system: SF-295 CNS
OVCAR-5 ovarian = test system: OVCAR-5 ovarian
A498 renal = test system: A498 renal

Oc1ccccc1C1C=C(c2ccccc2)NC(N2CCCCC2)=C1c1nc2ccccc2[nH]1 (configuration not stated)
TGI (SK-MEL-28 melanoma): 30.6 µM
TGI (U251 CNS): 28.4 µM
TGI (UACC-62 melanoma): 29.8 µM
TGI (MDA-MB-231 breast): 24.4 µM
TGI (A549 NSCLC): 29.2 µM
TGI (MOLT-4 leukemia): 57.6 µM
TGI (HCC-2998 colon): 10.8 µM
TGI (786-0 renal): 25.7 µM
TGI (SF-295 CNS): 29.2 µM
TGI (OVCAR-5 ovarian): 32 µM

N=C(N)SCCC(=O)CCSC(=N)N
TGI (SK-MEL-28 melanoma): > 100 µM
TGI (U251 CNS): > 100 µM
TGI (MDA-MB-231 breast): > 100 µM
TGI (A549 NSCLC): > 100 µM
TGI (MOLT-4 leukemia): > 100 µM
TGI (HCC-2998 colon): > 100 µM
TGI (A498 renal): > 100 µM
TGI (SF-295 CNS): > 100 µM

CC1(C)C(CCO)CC1n1ccc(=O)[nH]c1=O (configuration not stated)
TGI (SK-MEL-28 melanoma): > 100 µM
TGI (U251 CNS): > 100 µM
TGI (UACC-62 melanoma): > 100 µM
TGI (MDA-MB-231 breast): > 100 µM
TGI (A549 NSCLC): > 100 µM
TGI (HCC-2998 colon): > 100 µM
TGI (A498 renal): > 100 µM
TGI (786-0 renal): > 100 µM
TGI (SF-295 CNS): > 100 µM
TGI (OVCAR-5 ovarian): > 100 µM

CO[C@H]1O[C@@H]2CO[C@@H](c3ccccc3)O[C@H]2[C@@H]2C/C=C\CCC[C@@]12O
TGI (SK-MEL-28 melanoma): 89.1 µM
TGI (U251 CNS): 40.2 µM
TGI (UACC-62 melanoma): 30.7 µM
TGI (MDA-MB-231 breast): 68.4 µM
TGI (A549 NSCLC): > 100 µM
TGI (MOLT-4 leukemia): 42.2 µM
TGI (HCC-2998 colon): 26.4 µM
TGI (A498 renal): 29 µM
TGI (786-0 renal): 33 µM
TGI (SF-295 CNS): 42 µM
TGI (OVCAR-5 ovarian): 52.5 µM

COc1ccc(CNC(=O)[C@@H]2CCCN2C(=O)[C@@H](C)N(C)C(=O)[C@H](C(C)C)N(C)C(=O)[C@@H](NC(=O)[C@H](C(C)C)N(Cc2ccccc2)Cc2ccccc2)C(C)C)c(OC)c1 (Bn2Val-V[NMeV][dNMeA]P-X29)
TGI (SK-MEL-28 melanoma): 10.2 µM
TGI (U251 CNS): 5.21 µM
TGI (UACC-62 melanoma): 15.4 µM
TGI (MDA-MB-231 breast): 3.46 µM
TGI (A549 NSCLC): > 100 µM
TGI (HCC-2998 colon): 8.39 µM
TGI (A498 renal): 8.69 µM
TGI (786-0 renal): 11.1 µM
TGI (SF-295 CNS): 10.7 µM
TGI (OVCAR-5 ovarian): 3.13 µM

CCN(CC)CCCNC(=O)c1cc2cc(NC(=O)c3cc4cc([N+](=O)[O-])ccc4[nH]3)ccc2[nH]1
TGI (SK-MEL-28 melanoma): > 100 µM
TGI (UACC-62 melanoma): 96.3 µM
TGI (MDA-MB-231 breast): > 100 µM
TGI (A549 NSCLC): > 100 µM
TGI (HCC-2998 colon): > 100 µM
TGI (A498 renal): 75.7 µM
TGI (786-0 renal): > 100 µM
TGI (SF-295 CNS): > 100 µM
TGI (OVCAR-5 ovarian): > 100 µM

CN(C)c1ccc(/C=C/C(=O)N[C@@H]2C(=O)N3[C@@H]2SC(C)(C)[C@@H]3C(=O)O)cc1
TGI (SK-MEL-28 melanoma): > 100 µM
TGI (U251 CNS): > 100 µM
TGI (UACC-62 melanoma): > 100 µM
TGI (MDA-MB-231 breast): > 100 µM
TGI (A549 NSCLC): > 100 µM
TGI (MOLT-4 leukemia): > 100 µM
TGI (HCC-2998 colon): > 100 µM
TGI (A498 renal): > 100 µM
TGI (786-0 renal): > 100 µM
TGI (SF-295 CNS): > 100 µM
TGI (OVCAR-5 ovarian): > 100 µM

OCC(CCc1ccccc1I)C1=CCC2(CC1)OCCO2 (configuration not stated)
TGI (SK-MEL-28 melanoma): 35 µM
TGI (U251 CNS): 41.8 µM
TGI (UACC-62 melanoma): 35.6 µM
TGI (MDA-MB-231 breast): 62.9 µM
TGI (A549 NSCLC): 62.4 µM
TGI (MOLT-4 leukemia): > 100 µM
TGI (HCC-2998 colon): 43.4 µM
TGI (A498 renal): 55.9 µM
TGI (786-0 renal): 42.5 µM
TGI (SF-295 CNS): 32.1 µM
TGI (OVCAR-5 ovarian): 34.1 µM

CN(C(=O)c1ccc2c(c1)sc1c(=O)n(C)c3ccccc3c12)c1ccccc1
TGI (SK-MEL-28 melanoma): > 100 µM
TGI (U251 CNS): > 100 µM
TGI (UACC-62 melanoma): > 100 µM
TGI (MDA-MB-231 breast): > 100 µM
TGI (A549 NSCLC): > 100 µM
TGI (MOLT-4 leukemia): > 100 µM
TGI (HCC-2998 colon): > 100 µM
TGI (786-0 renal): > 100 µM
TGI (SF-295 CNS): > 100 µM
TGI (OVCAR-5 ovarian): > 100 µM

Cn1c([C@H](C#N)C(=O)c2cc(O)ccc2[N+](=O)[O-])nc2ccccc21
TGI (SK-MEL-28 melanoma): > 100 µM
TGI (U251 CNS): > 100 µM
TGI (UACC-62 melanoma): > 100 µM
TGI (MDA-MB-231 breast): > 100 µM
TGI (A549 NSCLC): > 100 µM
TGI (MOLT-4 leukemia): > 100 µM
TGI (HCC-2998 colon): > 100 µM
TGI (A498 renal): > 100 µM
TGI (786-0 renal): > 100 µM
TGI (SF-295 CNS): > 100 µM
TGI (OVCAR-5 ovarian): > 100 µM

CN1N=C(c2ccncc2)OC1c1cccc(C(F)(F)F)c1 (configuration not stated)
TGI (SK-MEL-28 melanoma): > 100 µM
TGI (U251 CNS): > 100 µM
TGI (UACC-62 melanoma): > 100 µM
TGI (MDA-MB-231 breast): > 100 µM
TGI (A549 NSCLC): > 100 µM
TGI (MOLT-4 leukemia): > 100 µM
TGI (HCC-2998 colon): > 100 µM
TGI (A498 renal): > 100 µM
TGI (786-0 renal): > 100 µM
TGI (SF-295 CNS): > 100 µM
TGI (OVCAR-5 ovarian): > 100 µM

Cc1cccc2nc3c(=O)[nH]c(=O)nc-3n(C)c12
TGI (SK-MEL-28 melanoma): > 100 µM
TGI (U251 CNS): > 100 µM
TGI (UACC-62 melanoma): > 100 µM
TGI (MDA-MB-231 breast): > 100 µM
TGI (A549 NSCLC): > 100 µM
TGI (MOLT-4 leukemia): > 100 µM
TGI (HCC-2998 colon): > 100 µM
TGI (786-0 renal): > 100 µM
TGI (SF-295 CNS): > 100 µM
TGI (OVCAR-5 ovarian): > 100 µM

CC(C)(O)C1CC[C@]2(C)[C@H]3CC[C@@H]4[C@@]5(C)CCCC(C)(C)[C@@H]5CC[C@@]4(C)[C@]3(C)CC[C@@H]12 (some centres not stated)
TGI (SK-MEL-28 melanoma): > 100 µM
TGI (U251 CNS): > 100 µM
TGI (UACC-62 melanoma): > 100 µM
TGI (MDA-MB-231 breast): > 100 µM
TGI (A549 NSCLC): > 100 µM
TGI (MOLT-4 leukemia): > 100 µM
TGI (HCC-2998 colon): > 100 µM
TGI (A498 renal): > 100 µM
TGI (786-0 renal): > 100 µM
TGI (SF-295 CNS): > 100 µM
TGI (OVCAR-5 ovarian): > 100 µM

COC(=O)[C@@](C)(COC(=O)C(C)(C)C)NC(=O)OC(C)(C)C
TGI (SK-MEL-28 melanoma): > 100 µM
TGI (U251 CNS): > 100 µM
TGI (UACC-62 melanoma): > 100 µM
TGI (MDA-MB-231 breast): > 100 µM
TGI (A549 NSCLC): > 100 µM
TGI (MOLT-4 leukemia): > 100 µM
TGI (HCC-2998 colon): > 100 µM
TGI (A498 renal): > 100 µM
TGI (786-0 renal): > 100 µM
TGI (SF-295 CNS): > 100 µM
TGI (OVCAR-5 ovarian): > 100 µM

O=C1C=C2CCC[C@H]3OC(=O)C[C@@]23CC1
TGI (SK-MEL-28 melanoma): > 100 µM
TGI (U251 CNS): > 100 µM
TGI (UACC-62 melanoma): > 100 µM
TGI (MDA-MB-231 breast): > 100 µM
TGI (A549 NSCLC): > 100 µM
TGI (MOLT-4 leukemia): > 100 µM
TGI (HCC-2998 colon): > 100 µM
TGI (A498 renal): > 100 µM
TGI (786-0 renal): > 100 µM
TGI (SF-295 CNS): > 100 µM
TGI (OVCAR-5 ovarian): > 100 µM

[O-][n+]1c(CN2CCCCC2)nc2cccc3c2c1-c1ccccc1-3
TGI (SK-MEL-28 melanoma): > 100 µM
TGI (U251 CNS): > 100 µM
TGI (UACC-62 melanoma): 32.8 µM
TGI (MDA-MB-231 breast): 95.6 µM
TGI (A549 NSCLC): 33.1 µM
TGI (MOLT-4 leukemia): > 100 µM
TGI (HCC-2998 colon): 31.8 µM
TGI (A498 renal): 38.3 µM
TGI (786-0 renal): 51.5 µM
TGI (SF-295 CNS): 84 µM
TGI (OVCAR-5 ovarian): 50.5 µM

CS(=O)(=O)c1nc(-c2cc3c(c(S(C)(=O)=O)n2)CCC3)cc2c1CCCC2
TGI (SK-MEL-28 melanoma): > 100 µM
TGI (U251 CNS): > 100 µM
TGI (UACC-62 melanoma): 29.6 µM
TGI (MDA-MB-231 breast): > 100 µM
TGI (A549 NSCLC): > 100 µM
TGI (MOLT-4 leukemia): > 100 µM
TGI (HCC-2998 colon): > 100 µM
TGI (786-0 renal): > 100 µM
TGI (SF-295 CNS): > 100 µM
TGI (OVCAR-5 ovarian): > 100 µM

Nc1nccc(NCC2(CO)CCC2)n1
TGI (SK-MEL-28 melanoma): > 100 µM
TGI (U251 CNS): > 100 µM
TGI (UACC-62 melanoma): > 100 µM
TGI (MDA-MB-231 breast): > 100 µM
TGI (A549 NSCLC): > 100 µM
TGI (MOLT-4 leukemia): > 100 µM
TGI (HCC-2998 colon): > 100 µM
TGI (A498 renal): > 100 µM
TGI (786-0 renal): > 100 µM
TGI (SF-295 CNS): > 100 µM
TGI (OVCAR-5 ovarian): > 100 µM

CCOC(=O)C(NC(=O)CC)(Nc1ccc(S(=O)(=O)Nc2onc(C)c2C)cc1)C(F)(F)F (configuration not stated)
TGI (SK-MEL-28 melanoma): > 100 µM
TGI (U251 CNS): > 100 µM
TGI (UACC-62 melanoma): > 100 µM
TGI (MDA-MB-231 breast): > 100 µM
TGI (A549 NSCLC): > 100 µM
TGI (MOLT-4 leukemia): > 100 µM
TGI (HCC-2998 colon): > 100 µM
TGI (786-0 renal): > 100 µM
TGI (SF-295 CNS): > 100 µM
TGI (OVCAR-5 ovarian): > 100 µM

COC(=O)C(=O)C(C(=O)C(=O)Nc1cccc([N+](=O)[O-])c1)c1nc2ccc(Cl)cc2[nH]c1=O (configuration not stated)
TGI (SK-MEL-28 melanoma): > 100 µM
TGI (U251 CNS): > 100 µM
TGI (UACC-62 melanoma): > 100 µM
TGI (MDA-MB-231 breast): > 100 µM
TGI (A549 NSCLC): > 100 µM
TGI (MOLT-4 leukemia): > 100 µM
TGI (HCC-2998 colon): > 100 µM
TGI (786-0 renal): > 100 µM
TGI (SF-295 CNS): > 100 µM
TGI (OVCAR-5 ovarian): > 100 µM
